Test system: hUC-MSCs
Experiment: CFU-F assay of hUC-MSCs
Format: cell-based, human
Conditions: 125 or 250 μg/mL AA2G for three days, n=3
Experimental: The inventors observed an effect of the material on stem cells by treating each stem cells with a material for enhancing a glutathione evaluation parameter. When hUC-MSCs were subcultured in a L-AA2G-containing medium, CFU-F, migration capacity, and an anti-inflammatory effect were observed. A CFU-F assay (n=3) was performed by treating hUC-MSCs with 125 or 250 μg/mL of AA2G for three days. As shown in FIGS. 16A and 16B, it was confirmed that, when AA2G was treated, CFU-F increased. In addition, as hUC-MSCs were treated with 125 or 250 μg/mL of AA2G for three days, PDGF-AA-induced migration capacity (n=3) was analyzed. As shown in FIGS. 17A and 17B, it was confirmed that the migration capacity was increased by AA2G treatment. In addition, the reduction in T cell proliferation, the reduction in T cell differentiation, and the promotion of Treg cell differentiation were observed by treating hUC-MSCs with 125 or 250 μg/mL of AA2G for three days. […] Meanwhile, hUC-MSCs were cultured with a glutathione precursor such as γ-glutamyl cysteine (GGC, 0.1, 0.25, and 0.5 mM). A CFU-F assay (n=3) was performed by treating hUC-MSCs with each concentration of GGC for 2 hours. […] In addition, SDF1α and PDGF-AA-induced migration capacities (n=3) were analyzed for hUC-MSCs without treatment with GGC, and SDF1α and PDGF-AA-induced migration abilities (n=3) were analyzed by treating hUC-MSCs with the increasing concentrations of GGC. STI571 was used as a PDGFR kinase inhibitor. As shown in FIGS. 20A to 20C, it was confirmed that, according to an increase in GGC treatment concentration, SDF1α- and PDGF-AA-induced migration capacities were enhanced. A CFU-F assay (n=3) was performed by treating hUC-MSCs with 0.2, 1, 2, and 4 μM ferrostatin-1 and 0.1, 0.5, 1, and 2 μM liproxstatin-1 for 24 hours.

In the case of O=C1O[C@H]([C@@H](O)CO)C(O)=C1O[C@H]1O[C@H](CO)[C@@H](O)[C@H](O)[C@H]1O [AA2G, ascorbic acid 2-glucoside], the CFU-F is reported as “increased”.

Source: patent publication US11499978B2, “Method for measuring quality of therapeutic cell through real-time glutathione measurement” (CELL2IN, INC., priority 2017, dated 2022)
